From patent publication US20250051762A1, “PLATFORM USING DNA-ENCODED SMALL MOLECULE LIBRARIES AND RNA SELECTION TO DESIGN SMALL MOLECULES THAT TARGET RNA” (University of Florida Research Foundation, Incorporated, priority 2021, published 2025)

Assays:
Format in all cases: cell-based, human
pri-miR-27a [1] = test: RT-qPCR of pri- and mature miR-27a in MCF-7 cells; settings: MCF-7, RT-qPCR
Protocol: (§1) Cell lines. Compounds were tested in MDA-MB-231 TNBC cells (HTB-26, ATCC), LNCaP metastatic prostate cancer cells (gifted from Junli Luo lab), MCF-7 (HTB-22, ATCC) breast cancer cells, HeLa cervical adenocarcinoma cells (CCL-2, ATCC), and MCF-10a, a model of healthy breast epithelial cells (CRL-10317, ATCC).
(§2) Cell culture and compound treatment. All cells were maintained at 37° C. with 5% CO2. MDA-MB-231 and LNCaP cells were cultured in RPMI 1640 medium with L-glutamine & 25 mM HEPES (Corning) supplemented with 10% (v/v) fetal bovine serum (FBS; Sigma) and 1× (v/v) Antibiotic-Antimycotic solution (Corning). MCF-7 and HeLa cells were cultured in DMEM medium with 4.5 g/L glucose (Corning), supplemented with 10% FBS, 1× (v/v) Glutagro (Corning), and 1× (v/v) Antibiotic-Antimycotic solution. […]
(§3) Analysis of mRNA abundance: Each cell line was grown as a monolayer in 12- or 24-well plates and treated as described in “Cell culture and compound treatment”. […] Relative abundance of mature miRNAs was calculated by normalizing to RNU6, and relative abundance for pri-miRNAs and mRNAs was calculated by normalizing to 18S ribosomal RNA, using the AAC, method. […]

pri-miR-27a [2] = test: RT-qPCR of pri- and mature miR-27a in HeLa cells
Protocol: as §1, §2, §3

PDCD4 = test: Western blot of PDCD4 in MDA-MB-231 cells; settings: relative to β-actin, 48 h
Protocol: (§4) Western Blotting: MDA-MB-231 cells were grown in 6-well plates to ˜80% confluency in complete growth medium and then incubated with 9 at the indicated concentrations for 48 h. Total protein was extracted using M-PER Mammalian Protein Extraction Reagent (Pierce Biotechnology) using the manufacturer's protocol and quantified using a Micro BCA Protein Assay Kit (Pierce Biotechnology). Approximately 50 μg of total protein was separated on a 10% SDS-polyacrylamide gel, and then transferred to a PVDF membrane. The membrane was washed with 1× Tris-buffered saline (TBS) and then blocked in 1×TBST (1×TBS containing 0.1% (v/v) Tween-20) containing 5% (w/v) milk for 1 h at room temperature. […] The membrane was again washed with 1×TBST, and protein expression was quantified using SuperSignal West Pico Chemiluminescent Substrate (Pierce Biotechnology) per the manufacturer's protocol.
(§5) To quantify b-actin expression, used for normalization, the membrane was stripped using 1× Stripping Buffer (200 mM glycine, pH 2.2 and 0.1% SDS) followed by washing in 1×TBST. […] The fold change of the target protein expression (PP4C or PDCD4) was calculated by normalizing its band intensity to b-actin band intensity using ImageJ.

PP4C = test: Western blot of PP4C in MDA-MB-231 cells; settings: relative to β-actin, 48 h
Protocol: as §4, §5

[3] = test system: MCF-10a cells expressing mutant pri-miR-27a; test: Migration of MCF-10a cells expressing mutant pri-miR-27a; settings: forced expression of mutated pri-miR-27a
Protocol: MCF-10a cells were transfected with plasmids to express pri-miR-27a and mutant pri-miR-27a in 12- or 24-well plates with Lipofectamine 2000 per the manufacturer's protocol. For treatment of compounds, stocks were diluted in growth medium and added to cells for 48 h. The miRCURY miR-27a LNA inhibitor (QIAGEN, Cat #339121) was used as a positive control by diluting in growth medium to a final concentration of 1 nM. The miRCURY LNA Negative Control (QIAGEN, Cat #YI00199007-DDA) was used as a negative control, which has also diluted in growth medium to a final concentration of 1 nM.
Migration assay: MDA-MB-231 cells were grown in 60 mm diameter dishes and treated as described in “Cell culture and compound treatment” for 12 h. The medium was then removed and replaced with growth medium lacking FBS but with the same concentration of compound. After 12 h of serum starvation, the cells were detached and seeded to ThinCert™ (GBO) 24-well hanging inserts with 8 μm pores (˜5×10^4 cells per insert). Fresh growth medium with FBS was dispended in a 24-well plate (600 μL each well), and the ThinCert™ hanging inserts containing cells were then placed into the wells. After incubating for 24 h, the growth medium in the inserts was removed, and the remaining cells were washed twice with 1×DPBS. […] The remaining cells were then imaged by microscopy and counted for quantification (3 fields of view per sample).

SMILES: C#CCN(CC(N)=O)C(=O)C[C@H](Cc1c[nH]c2ccccc12)NC(=O)[C@@H]1C[C@H](NC(=O)Cn2c(=O)[nH]c3ccccc3c2=O)CN1 [Compound 9]
- dose with significant inhibition of miR-27a processing (pri-miR-27a [1]): 100 nM
- dose with significant inhibition of miR-27a processing (pri-miR-27a [2]): 100 nM
- PDCD4 expression (PDCD4): upregulation
- PP4C expression (PP4C): upregulation
- rescue of migratory phenotype [3]: did not inhibit biogenesis of the mutated pri-miR-27a in MCF-10A (FIG. 3B) or rescue the migratory phenotype
